{
  "source": "patent US20030073115A1",
  "about": "(priority 2002, published 2003)",
  "origin": "cited, not measured here",
  "key": {"CNS galanin receptors": {"test_system": "CNS galanin receptors", "conditions": "CNS / brain"}, "[1]": {"test_system": "gastrointestinal smooth muscle"}, "[2]": {"test_system": "Galanin receptors in the dorsal hippocampus"}},
  "data": [
    {"compound": "CSCC[C@H](NC(=O)[C@H](CC(C)C)NC(=O)CNC(=O)[C@H](Cc1ccccc1)NC(=O)[C@H](Cc1ccccc1)NC(=O)[C@H](CCC(N)=O)NC(=O)[C@H](CCC(N)=O)NC(=O)[C@@H]1CCCN1C(=O)CNC(=O)[C@H](CC(C)C)NC(=O)[C@H](CC(C)C)NC(=O)[C@H](Cc1ccc(O)cc1)NC(=O)CNC(=O)[C@H](C)NC(=O)[C@H](CO)NC(=O)[C@H](CC(N)=O)NC(=O)[C@H](CC(C)C)NC(=O)[C@@H](NC(=O)[C@H](Cc1c[nH]c2ccccc12)NC(=O)CN)[C@@H](C)O)C(N)=O", "note": "[M15]", "values": [
      {"measurement": "activity at CNS galanin receptors", "setting": "CNS galanin receptors", "value": "antagonist"},
      {"measurement": "activity in gastrointestinal smooth muscle", "setting": "[1]", "value": "full agonist"}
    ]},
    {"compound": "Gal (1-15): galanin fragment 1-15", "values": [
      {"measurement": "affinity", "setting": "[2]", "value": "high affinity"}
    ]}
  ]
}
